Measurements taken from EP4512806A1, “MOLECULAR GLUE DEGRADERS AND USES THEREOF” (Mablink Bioscience, priority 2023, dated 2025).

Test system: 340 protein kinases
Assay: Kinase screening assay (radiometric 33PanQinase ActivityAssay)
Format: biochemical, human
Conditions: final compound concentration of 10 µM; most inhibited kinases belong to CMGC family, particularly CDK; 23 out of the 30 most inhibited were CDK/Cyclin complexes
Method: Compound 2384 according to the disclosure was subjected to kinase screening assays (performed at Reaction Biology, Germany). The screening assay was performed at a final compound concentration of 10 µM. A radiometric protein kinase assay (33PanQinase® ActivityAssay) was used for measuring the kinase activity of 340 protein kinases. All kinase assays were performed in 96-well FlashPlates™ from Perkin Elmer (Boston, MA, USA) in a 50 µL reaction volume. […] All PKC assays (except the PKC-mu and the PKC-nu assay) additionally contained 1 mM CaCl2, 4 mM EDTA, 5 µg/ml Phosphatidylserine and 1 µg/ml 1,2-Dioleyl-glycerol. The CAMK1D, CAMK2A, CAMK2B, CAMK2D, CAMK2G, CAMK4, CAMKK1, CAMKK2, DAPK2, EEF2K, MYLK, MYLK2 and MYLK3 assays additionally contained 1 µg/ml Calmodulin and 0.5 mM CaCl2. The PRKG1 and PRKG2 assays additionally contained 1 µM cGMP. The DNA-PK assay additionally contained 2.5 µg/ml DNA. The protein kinase reaction cocktails were incubated at 30°C for 60 minutes. The reaction was stopped with 50 µl of 2 % (v/v) H3PO4, plates were aspirated and washed two times with 200 µL 0.9 % (w/v) NaCl. Incorporation of 33Pi (counting of "cpm") was determined with a microplate scintillation counter (Microbeta, Wallac). All protein kinase assays were performed with a BeckmanCoulter Biomek 2000/SL robotic system. […]

N[C@H]1CC[C@H](Nc2nc(NCc3ccc(-c4ccccn4)cc3)n3ncc(Br)c3n2)CC1 [Compound 2384]
inhibition of most inhibited kinases: more than 90%
